The supplement of paper PMC4862054

Key:
Experiment in all cases: normalised response (% of control), CellTiter-Glo; higher = more viable cells (100 = DMSO, 0 = benzethonium chloride kill control)
Conditions in all cases: incubation time: 72 h
BT-474 = test system: BT-474
Procedure, shortened: (§1)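 Values are normalised signals, each belonging to one concentration of the series. Breast cancer cells (20 µl suspension) were seeded into 384-well plates with compound at 5 concentrations in 10-fold steps over a compound-specific 10,000-fold range and incubated 72 h. Readouts were CellTox Green fluorescence (485/520 nm), then CellTiter-Glo luminescence after 10 min at room temperature, with each plate set to 0.1 % DMSO as 100 and a positive kill control as 0.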

BT-549 = test system: BT-549
Procedure, shortened: as §1

CAL-120 = test system: CAL-120
Procedure, shortened: as §1

CAL-148 = test system: CAL-148
Procedure, shortened: as §1

CAL-51 = test system: CAL-51
Procedure, shortened: as §1

CAL-85-1 = test system: CAL-85-1
Procedure, shortened: as §1

DU-4475 = test system: DU-4475
Procedure, shortened: as §1

HCC1143 = test system: HCC1143
Procedure, shortened: as §1

HCC1599 = test system: HCC1599
Procedure, shortened: as §1

HCC1937 = test system: HCC1937
Procedure, shortened: as §1

HDQ-P1 = test system: HDQ-P1
Procedure, shortened: as §1

Hs578T = test system: Hs578T
Procedure, shortened: as §1

MCF-10A = test system: MCF-10A
Procedure, shortened: as §1

MDA-MB-231 = test system: MDA-MB-231
Procedure, shortened: as §1

MDA-MB-436 = test system: MDA-MB-436
Procedure, shortened: as §1

MDA-MB-453 = test system: MDA-MB-453
Procedure, shortened: as §1

MDA-MB-468 = test system: MDA-MB-468
Procedure, shortened: as §1

MFM-223 = test system: MFM-223
Procedure, shortened: as §1

SK-BR-3 = test system: SK-BR-3
Procedure, shortened: as §1

Compound | normalised response (BT-474) [%] | normalised response (BT-549) [%] | normalised response (CAL-120) [%] | normalised response (CAL-148) [%] | normalised response (CAL-51) [%] | normalised response (CAL-85-1) [%] | normalised response (DU-4475) [%] | normalised response (HCC1143) [%] | normalised response (HCC1599) [%] | normalised response (HCC1937) [%] | normalised response (HDQ-P1) [%] | normalised response (Hs578T) [%] | normalised response (MCF-10A) [%] | normalised response (MDA-MB-231) [%] | normalised response (MDA-MB-436) [%] | normalised response (MDA-MB-453) [%] | normalised response (MDA-MB-468) [%] | normalised response (MFM-223) [%] | normalised response (SK-BR-3) [%]
O=C1c2c(O)ccc(O)c2C(=O)c2c(NCCNCCO)ccc(NCCNCCO)c21 [Mitoxantrone] (100 nM) | 94.3 | 90.1 | 34.6 | 85.6 | 93.8 | 101 | 86.2 | 96 | 120 | 97.3 | 96.4 | 104 | 96.2 | 103 | 69.8 | 107 | 92.4 | 99.7 | 99.2
Nc1ccccc1NC(=O)c1ccc(CNc2nccc(-c3cccnc3)n2)cc1 [Mocetinostat] (1000 nM) | 80.4 | 66 | 83.8 | 77 | 62.9 | 87.9 | 76.3 | 91 | 81.2 | 67.8 | 80.8 | 74 | 140 | 77.7 | 78.2 | 62.8 | 72 | 77 | 78
COc1nc(N)nc2c1ncn2[C@@H]1O[C@H](CO)[C@@H](O)[C@@H]1O [Nelarabine] (1000 nM) | 83.7 | 94.1 | 98.7 | 85.6 | 88.7 | 99.1 | 91.3 | 89.3 | 113 | 96.2 | 96.7 | 98.7 | 82.8 | 93.9 | 92.1 | 87.3 | 92.1 | 88.3 | 80.7
Cc1ccc(Nc2nccc(N(C)c3ccc4c(C)n(C)nc4c3)n2)cc1S(N)(=O)=O [Pazopanib] (1000 nM) | 93.9 | 98.4 | 87.3 | 98.6 | 104 | 101 | 104 | 106 | 106 | 94.5 | 100 | 95.6 | 92.5 | 106 | 103 | 113 | 103 | 66.6 | 102
O=C(CCBr)N1CCN(C(=O)CCBr)CC1 [Pipobroman] (1000 nM) | 93.9 | 102 | 99.3 | 101 | 88.8 | 105 | 95.8 | 112 | 109 | 103 | 97.2 | 108 | 97 | 99.5 | 96.6 | 101 | 99.6 | 104 | 106
C[C@]12C=CC(=O)C=C1CC[C@@H]1[C@@H]2[C@@H](O)C[C@@]2(C)[C@H]1CC[C@]2(O)C(=O)CO [Prednisolone] (1000 nM) | 158 | 102 | 75.2 | 102 | 120 | 113 | 101 | 102 | 109 | 97.6 | 85.8 | 113 | 101 | 154 | 99.7 | 98.1 | 121 | 106 | 90.3
CNC(=O)c1cc(Oc2ccc(NC(=O)Nc3ccc(Cl)c(C(F)(F)F)c3)cc2)ccn1 [Sorafenib] (100 nM) | 101 | 106 | 111 | 110 | 83.9 | 107 | 105 | 105 | 98.7 | 104 | 103 | 90.6 | 122 | 104 | 109 | 90.5 | 117 | 104 | 104
CCN(CC)CCNC(=O)c1c(C)[nH]c(/C=C2\C(=O)Nc3ccc(F)cc32)c1C [Sunitinib] (100 nM) | 107 | 107 | 103 | 104 | 88.4 | 104 | 99.7 | 108 | 107 | 99.4 | 101 | 102 | 95.5 | 109 | 105 | 92 | 108 | 107 | 112
CC[C@@]1(O)C(=O)OCc2c1cc1n(c2=O)Cc2cc3c(CN(C)C)c(O)ccc3nc2-1 [Topotecan] (1000 nM) | 81.8 | 51.5 | 75.6 | 24.3 | 48 | 50.1 | 38.4 | 55.1 | 24.1 | 79.3 | 86.9 | 99.1 | 79.2 | 81.6 | 42.6 | 87.6 | 11.1 | 91.4 | 47.6
